Reference: ChEMBL document CHEMBL3864146, “5-Alkyloxytryptamines are membrane-targeting, broad-spectrum antibiotics” (Bioorg Med Chem Lett, 2016)

How the values were obtained:
Escherichia coli [1] = test: Adjuvant activity assessed as potentiation of ciprofloxacin-induced antibacterial activity against Escherichia coli BW25113 at 0.25 times MIC after 16 to 18 hrs by checkerboard assay (reference value: 13 ng/ml); type: functional
Escherichia coli [2] = test: Adjuvant activity assessed as potentiation of rifampicin-induced antibacterial activity against Escherichia coli BW25113 at 0.5 times MIC after 16 to 18 hrs by checkerboard assay (reference value: 8 ng/ml); type: functional
Morganella morganii = test: Antibacterial activity against Morganella morganii after 16 to 18 hrs by micro-dilution method; type: functional
[3] = Cytotoxicity against HEK cells assessed as cell viability at 5.3 ug/ml after 24 hrs by CellTiter-Glo assay relative to control; type: toxicity, cell-based, HEK293; conditions: human, read-out: Activity
Vibrio cholerae = test: Antibacterial activity against Vibrio cholerae after 16 to 18 hrs by micro-dilution method; type: functional
Escherichia coli [4] = test: Adjuvant activity assessed as potentiation of ciprofloxacin-induced antibacterial activity against Escherichia coli BW25113 at 0.5 times MIC after 16 to 18 hrs by checkerboard assay (reference value: 13 ng/ml); type: functional
Staphylococcus aureus [5] = test: Adjuvant activity assessed as potentiation of rifampicin-induced antibacterial activity against Staphylococcus aureus at 21 ug/ml after 16 to 18 hrs by checkerboard assay (reference value: 0.004 ug/ml); type: functional
Bacillus subtilis = test: Antibacterial activity against Bacillus subtilis 168 after 16 to 18 hrs by micro-dilution method; type: functional; conditions: subsp. subtilis str. 168
[6] = Cytotoxicity against HEK cells assessed as cell viability at 5.3 ug/ml after 48 hrs by CellTiter-Glo assay relative to control; type: toxicity, cell-based, HEK293; conditions: human, read-out: Activity
Escherichia coli [7] = test: Antibacterial activity against Escherichia coli BW25113 after 16 to 18 hrs by micro-dilution method; type: functional
Salmonella typhimurium [8] = test: Antibacterial activity against Salmonella typhimurium after 16 to 18 hrs by micro-dilution method; type: functional, Salmonella enterica subsp. enterica serovar Typhimurium; conditions: Salmonella enterica
Escherichia coli [9] = test: Induction of membrane permeabilization in Escherichia coli BW25113 at MIC after 15 mins by propidium iodide staining-based fluorescence microplate reader method relative to 50% ethanol; type: functional
Escherichia coli [10] = test: Adjuvant activity assessed as potentiation of chloramphenicol-induced antibacterial activity against Escherichia coli BW25113 at 0.5 times MIC after 16 to 18 hrs by checkerboard assay (reference value: 8 ng/ml); type: functional
Escherichia coli [11] = test: Antibacterial activity against tolC-deficient Escherichia coli BW25113 after 16 to 18 hrs by micro-dilution method; type: functional
Klebsiella aerogenes = test: Antibacterial activity against Enterobacter aerogenes after 16 to 18 hrs by micro-dilution method; type: functional
[12] = Cytotoxicity against HEK cells assessed as cell viability at 10.5 ug/ml after 24 hrs by CellTiter-Glo assay relative to control; type: toxicity, cell-based, HEK293; conditions: human, read-out: Activity
Klebsiella pneumoniae [13] = test: Adjuvant activity assessed as potentiation of rifampicin-induced antibacterial activity against Klebsiella pneumoniae at 21 ug/ml after 16 to 18 hrs by checkerboard assay (reference value: 16 ug/ml); type: functional
Edwardsiella tarda = test: Antibacterial activity against Edwardsiella tarda after 16 to 18 hrs by micro-dilution method; type: functional
[14] = Cytotoxicity against HEK cells assessed as cell viability at 21 ug/ml after 48 hrs by CellTiter-Glo assay relative to control; type: toxicity, cell-based, HEK293; conditions: human, read-out: Activity
Salmonella typhimurium [15] = test: Adjuvant activity assessed as potentiation of rifampicin-induced antibacterial activity against Salmonella typhimurium at 21 ug/ml after 16 to 18 hrs by checkerboard assay (reference value: 8 ug/ml); type: functional, Salmonella enterica subsp. enterica serovar Typhimurium; conditions: Salmonella enterica
Klebsiella pneumoniae [16] = test: Antibacterial activity against Klebsiella pneumoniae after 16 to 18 hrs by micro-dilution method; type: functional
[17] = Cytotoxicity against HEK cells assessed as cell viability at 21 ug/ml after 24 hrs by CellTiter-Glo assay relative to control; type: toxicity, cell-based, HEK293; conditions: human, read-out: Activity
Staphylococcus aureus [18] = test: Antibacterial activity against Staphylococcus aureus after 16 to 18 hrs by micro-dilution method; type: functional
Escherichia coli [19] = test: Adjuvant activity assessed as potentiation of tetracycline-induced antibacterial activity against Escherichia coli BW25113 at 0.5 times MIC after 16 to 18 hrs by checkerboard assay (reference value: 2 ng/ml); type: functional
Acinetobacter baumannii [20] = test: Adjuvant activity assessed as potentiation of rifampicin-induced antibacterial activity against Acinetobacter baumannii at 21 ug/ml after 16 to 18 hrs by checkerboard assay (reference value: 2 ug/ml); type: functional
Shigella boydii = test: Antibacterial activity against Shigella boydii after 16 to 18 hrs by micro-dilution method; type: functional
Escherichia coli [21] = test: Adjuvant activity assessed as potentiation of chloramphenicol-induced antibacterial activity against Escherichia coli BW25113 at 0.25 times MIC after 16 to 18 hrs by checkerboard assay (reference value: 8 ng/ml); type: functional
Escherichia coli [22] = test: Adjuvant activity assessed as potentiation of rifampicin-induced antibacterial activity against Escherichia coli BW25113 at 0.25 times MIC after 16 to 18 hrs by checkerboard assay (reference value: 8 ng/ml); type: functional
Pseudomonas aeruginosa [23] = test: Antibacterial activity against Pseudomonas aeruginosa after 16 to 18 hrs by micro-dilution method; type: functional
[24] = Cytotoxicity against HEK cells assessed as cell viability at 10.5 ug/ml after 48 hrs by CellTiter-Glo assay relative to control; type: toxicity, cell-based, HEK293; conditions: human, read-out: Activity
Acinetobacter baumannii [25] = test: Antibacterial activity against Acinetobacter baumannii after 16 to 18 hrs by micro-dilution method; type: functional
Pseudomonas aeruginosa [26] = test: Adjuvant activity assessed as potentiation of rifampicin-induced antibacterial activity against Pseudomonas aeruginosa at 21 ug/ml after 16 to 18 hrs by checkerboard assay (reference value: 16 ug/ml); type: functional
Escherichia coli [27] = test: Adjuvant activity assessed as potentiation of tetracycline-induced antibacterial activity against Escherichia coli BW25113 at 0.25 times MIC after 16 to 18 hrs by checkerboard assay (reference value: 2 ng/ml); type: functional
[28] = Cytotoxicity against HEK cells assessed as cell viability at 3.5 ug/ml after 24 hrs by CellTiter-Glo assay relative to control; type: toxicity, cell-based, HEK293; conditions: human, read-out: Activity
[29] = Cytotoxicity against HEK cells assessed as cell viability at 6.9 ug/ml after 24 hrs by CellTiter-Glo assay relative to control; type: toxicity, cell-based, HEK293; conditions: human, read-out: Activity
[30] = Cytotoxicity against HEK cells assessed as cell viability at 6.9 ug/ml after 48 hrs by CellTiter-Glo assay relative to control; type: toxicity, cell-based, HEK293; conditions: human, read-out: Activity
[31] = Cytotoxicity against HEK cells assessed as cell viability at 14 ug/ml after 24 hrs by CellTiter-Glo assay relative to control; type: toxicity, cell-based, HEK293; conditions: human, read-out: Activity
[32] = Cytotoxicity against HEK cells assessed as cell viability at 3.5 ug/ml after 48 hrs by CellTiter-Glo assay relative to control; type: toxicity, cell-based, HEK293; conditions: human, read-out: Activity
[33] = Cytotoxicity against HEK cells assessed as cell viability at 14 ug/ml after 48 hrs by CellTiter-Glo assay relative to control; type: toxicity, cell-based, HEK293; conditions: human, read-out: Activity

Row | SMILES | MIC (Escherichia coli [1]) [µg/mL] | MIC (Escherichia coli [2]) [µg/mL] | MIC (Morganella morganii) [µg/mL] | MIC (Vibrio cholerae) [µg/mL] | MIC (Escherichia coli [4]) [µg/mL] | MIC (Bacillus subtilis) [µg/mL] | MIC (Escherichia coli [7]) [µg/mL] | MIC (Salmonella typhimurium [8]) [µg/mL] | Activity (Escherichia coli [9]) [%] | MIC (Escherichia coli [10]) [µg/mL] | MIC (Escherichia coli [11]) [µg/mL] | MIC (Klebsiella aerogenes) [µg/mL] | MIC (Edwardsiella tarda) [µg/mL] | MIC (Klebsiella pneumoniae [16]) [µg/mL] | MIC (Staphylococcus aureus [18]) [µg/mL] | MIC (Escherichia coli [19]) [µg/mL] | MIC (Shigella boydii) [µg/mL] | MIC (Escherichia coli [21]) [µg/mL] | MIC (Escherichia coli [22]) [µg/mL] | MIC (Pseudomonas aeruginosa [23]) [µg/mL] | other results
1 | CCCCCCOc1ccc2[nH]cc(CCN)c2c1.Cl | 0.013 | 0.001 | > 83 | 42 | 0.013 | 42 | 42 | 42 | 34 | 0.004 | 42 | 42 | 42 | 42 | 42 | 0.001 | 42 | 0.004 | 0.004 | > 83 | viability at 24 h, 5.3 ug/ml [3]: 0.4%; MIC (Staphylococcus aureus [5]): 0.004 µg/mL; viability at 48 h, 5.3 ug/ml [6]: 0.1%; viability at 24 h, 10.5 ug/ml [12]: 0.1%; MIC (Klebsiella pneumoniae [13]): 8 µg/mL; viability at 48 h, 21 ug/ml [14]: 0%; MIC (Salmonella typhimurium [15]): 0.5 µg/mL; viability at 24 h, 21 ug/ml [17]: 0%; MIC (Acinetobacter baumannii [20]): 0.016 µg/mL; viability at 48 h, 10.5 ug/ml [24]: 0%; MIC (Acinetobacter baumannii [25]): 42 µg/mL; MIC (Pseudomonas aeruginosa [26]): 16 µg/mL; MIC (Escherichia coli [27]): 0.002 µg/mL
2 | CCCCCCCCCCCCOc1ccc2[nH]cc(CCN)c2c1.Cl | 0.013 | 0.00025 | > 110 | 28 | 0.0008 | 1.7 | 26 | 28 | 10 | 0.0005 | 6.9 | > 110 | > 110 | > 110 | 3.4 | 0.00025 | 14 | 0.001 | 0.001 | > 110 | viability at 24 h, 3.5 ug/ml [28]: 26%; viability at 24 h, 6.9 ug/ml [29]: 10.4%; viability at 48 h, 6.9 ug/ml [30]: 2.6%; viability at 24 h, 14 ug/ml [31]: 1.5%; viability at 48 h, 3.5 ug/ml [32]: 13.4%; viability at 48 h, 14 ug/ml [33]: 0.2%; MIC (Acinetobacter baumannii [25]): 28 µg/mL; MIC (Escherichia coli [27]): 0.001 µg/mL
